Values of other authors as cited in patent publication US7427608B2, “Protection against and treatment of hearing loss” (The Research Foundation of State University of New York, priority 2001, dated 2008).

Target: p56 lck (Homo sapiens, UniProt P06239)
Details: analyzed with the tyrosine kinase p56^lck; cited from earlier work

Sequence of p56 lck (P06239 whole entry, species assumed): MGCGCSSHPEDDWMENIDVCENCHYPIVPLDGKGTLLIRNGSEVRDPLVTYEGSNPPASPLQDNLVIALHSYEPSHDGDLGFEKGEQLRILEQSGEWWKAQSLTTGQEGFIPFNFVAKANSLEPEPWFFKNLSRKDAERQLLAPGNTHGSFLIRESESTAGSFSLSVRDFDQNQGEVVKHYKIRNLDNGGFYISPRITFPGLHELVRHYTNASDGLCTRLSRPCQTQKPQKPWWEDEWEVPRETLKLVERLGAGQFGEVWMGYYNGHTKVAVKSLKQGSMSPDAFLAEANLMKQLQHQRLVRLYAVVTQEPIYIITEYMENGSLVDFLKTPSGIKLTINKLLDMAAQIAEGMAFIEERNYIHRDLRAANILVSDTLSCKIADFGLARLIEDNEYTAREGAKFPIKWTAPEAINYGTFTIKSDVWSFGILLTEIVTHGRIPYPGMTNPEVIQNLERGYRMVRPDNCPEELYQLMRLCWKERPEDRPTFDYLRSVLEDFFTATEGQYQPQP

Cc1cc(O)c2c(c1)C(=O)c1cc(O)cc(O)c1C2=O [Emodin]
competition with ATP: ATP-competitive
